Results: patent publication US20240116873A1, “QUINOLINE MERCAPTOACETATE SULFONAMIDE DERIVATIVE, INTERMEDIATE, PHARMACEUTICAL DERIVATIVE OR FORMULATION, AND PREPARATION METHOD AND USE THEREFOR” (JIANGSU CHIATAI QINGJIANG PHARMACEUTICAL CO., LTD., priority 2022, published 2024)
Read-outs that look alike come from different tables or passages of the source. Values belong to the compound of their own block, whether it stands above or below them.

Assays:
hURAT1 = hURAT1 (Homo sapiens (Human), UniProt Q96S37); assay: In vitro inhibition of 14C-uric acid absorption in HEK-293T cells stably expressing hURAT1; type: cell-based
Experimental: It was to test the in vitro inhibitory activity (IC50) of the compound on hURAT1.
The culture medium included: a DMEM culture medium+10% of fetal calf serum+500 μg/ml G418+1% of P/S. • (2) When the cells grew to 80% full, the culture medium was removed, PBS was added to clean the cells once, and then pancreatin-EDTA was added for digestion. The culture medium was added when the cells were subjected to wall removal, and subjected to blowing and beating to make the cells fall off. The cells were centrifuged and collected. The culture medium was added, and subjected to blowing and beating to form cell suspension. • (3) The cell density was adjusted to be 7×10^5/ml, then the cells were inoculated into a 96-well cell culture plate with white wall and transparent bottom according to the amount of 100 μL/well, and cultured for 12-24 h.
3.3 Preparation of compounds • (1) The compound was prepared into a mother solution with a concentration of 20 mM by DMSO, the mother solution was diluted to reach a concentration of 1 mM by DMSO, and then the solution was added into 96 wells. • (2) Quality control compounds were additionally arranged on the 96-well plate, so as to obtain a 100 x compound plate. • (3) The solutions in corresponding wells of another 96-well plate were diluted 50 times by the Cl-free HBSS buffer solution, so as to obtain a 2 x compound plate (plate 2). • (4) A buffer solution containing 0.1 μCi/ml 14C-uric acid at a density of 30 μL/well and a 2 x diluted compound at a density of 30 μL/well into a new 96-well plate, so as to obtain a 1 x compound plate (plate 1) for later use.
3.4 Absorption of ^14C-uric acid in cells stably expressing hURAT1 • (1) An absorption test may be performed after cells in the 96-well plate were cultured and adhered to the wall. • (2) The cells were washed once by the preheated buffer solution at a density of 200 μL/well. • (3) The cells in each well were completely absorbed, and then the corresponding compounds and 0.1 μCi/ml 14C-uric acid solution were immediately added at a density of 50 μL/well. • (4) The plate added with the compounds was incubated in an incubator at 37° C. for 5 min. • (5) 150 μL of ice-cold buffer solution was immediately added into each well to stop absorption. Each well was washed for three times with the buffer solution.

OAT3 = OAT3 (Homo sapiens (Human), UniProt Q8TCC7); assay: Inhibitory effect on transporter OAT3
Experimental: (§1) The IC50 of compounds on URAT1, OAT1, OAT3, and OAT4 was tested, thereby providing research data for clinical application and further development of drugs.

OAT1 = OAT1 (Homo sapiens (Human), UniProt Q4U2R8); assay: Inhibitory effect on transporter OAT1
Experimental: as §1

[1] = tested on: rat model of hyperuricemia; assay: Rat model of hyperuricemia induced by oteracil potassium and hypoxanthine; type: in vivo; conditions: P<0.05
Experimental: Oteracil potassium was combined with hypoxanthine to induce a rat model of hyperuricemia for effective dose exploration and dose-effect relationship research. Oteracil potassium feed was adopted for feeding to induce the rat model of hyperuricemia for time-effect relationship, pathological state-based functional mechanism confirmation, and PK-PD researches.
In the experiment, the rat model of hyperuricemia was prepared by intragastric administration of hypoxanthine and intraperitoneal injection of oteracil potassium. The single intragastric administration dose of the compound shown in Formula 1 was set to be 5 mg/kg, 10 mg/kg, 20 mg/kg, and 40 mg/kg. The single intragastric administration dose of Lesinurad in the positive control groups was set to be 10 mg/kg, 20 mg/kg, 40 mg/kg, and 80 mg/kg. […] Moreover, the compounds had no significant effect on the renal coefficient, further verifying the good safety of this product at the effective dose.

OAT4 = OAT4 (Homo sapiens (Human), UniProt Q9NSA0); assay: Inhibitory effect on transporter OAT4
Experimental: as §1

[2] = curve-fit parameter, hURAT1 inhibition, superscript 1 = plate1, 2 = plate2

hURAT1, sequence (Q96S37 whole entry): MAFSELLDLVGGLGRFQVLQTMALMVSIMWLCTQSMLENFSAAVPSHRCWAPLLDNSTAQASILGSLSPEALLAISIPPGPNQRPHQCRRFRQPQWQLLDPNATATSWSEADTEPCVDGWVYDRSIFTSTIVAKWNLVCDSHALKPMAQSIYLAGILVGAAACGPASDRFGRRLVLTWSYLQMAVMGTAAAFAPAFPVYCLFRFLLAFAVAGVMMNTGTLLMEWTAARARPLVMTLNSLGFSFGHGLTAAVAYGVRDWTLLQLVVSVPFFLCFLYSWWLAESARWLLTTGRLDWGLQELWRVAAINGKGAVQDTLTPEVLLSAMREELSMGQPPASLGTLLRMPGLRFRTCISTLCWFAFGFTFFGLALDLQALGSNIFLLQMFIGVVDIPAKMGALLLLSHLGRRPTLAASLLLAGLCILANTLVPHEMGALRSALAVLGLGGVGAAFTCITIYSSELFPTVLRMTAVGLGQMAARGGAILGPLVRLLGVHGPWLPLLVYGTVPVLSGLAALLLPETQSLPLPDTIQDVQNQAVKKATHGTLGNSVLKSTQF
OAT4, sequence (Q9NSA0 whole entry): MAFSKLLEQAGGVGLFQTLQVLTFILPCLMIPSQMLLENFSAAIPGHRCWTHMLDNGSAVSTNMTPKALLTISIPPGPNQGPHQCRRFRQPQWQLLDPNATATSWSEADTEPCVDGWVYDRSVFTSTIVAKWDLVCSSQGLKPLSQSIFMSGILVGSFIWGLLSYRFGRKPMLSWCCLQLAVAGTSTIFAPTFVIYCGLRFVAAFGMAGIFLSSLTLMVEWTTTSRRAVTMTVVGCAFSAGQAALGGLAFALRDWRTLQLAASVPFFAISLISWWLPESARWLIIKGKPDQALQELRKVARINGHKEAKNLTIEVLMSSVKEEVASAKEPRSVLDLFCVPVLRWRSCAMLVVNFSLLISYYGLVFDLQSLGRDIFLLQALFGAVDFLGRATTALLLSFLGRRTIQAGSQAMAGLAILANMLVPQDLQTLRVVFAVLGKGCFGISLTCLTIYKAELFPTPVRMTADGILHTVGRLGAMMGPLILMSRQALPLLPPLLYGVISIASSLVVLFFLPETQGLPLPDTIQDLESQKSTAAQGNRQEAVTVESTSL
OAT1, sequence (Q4U2R8 whole entry): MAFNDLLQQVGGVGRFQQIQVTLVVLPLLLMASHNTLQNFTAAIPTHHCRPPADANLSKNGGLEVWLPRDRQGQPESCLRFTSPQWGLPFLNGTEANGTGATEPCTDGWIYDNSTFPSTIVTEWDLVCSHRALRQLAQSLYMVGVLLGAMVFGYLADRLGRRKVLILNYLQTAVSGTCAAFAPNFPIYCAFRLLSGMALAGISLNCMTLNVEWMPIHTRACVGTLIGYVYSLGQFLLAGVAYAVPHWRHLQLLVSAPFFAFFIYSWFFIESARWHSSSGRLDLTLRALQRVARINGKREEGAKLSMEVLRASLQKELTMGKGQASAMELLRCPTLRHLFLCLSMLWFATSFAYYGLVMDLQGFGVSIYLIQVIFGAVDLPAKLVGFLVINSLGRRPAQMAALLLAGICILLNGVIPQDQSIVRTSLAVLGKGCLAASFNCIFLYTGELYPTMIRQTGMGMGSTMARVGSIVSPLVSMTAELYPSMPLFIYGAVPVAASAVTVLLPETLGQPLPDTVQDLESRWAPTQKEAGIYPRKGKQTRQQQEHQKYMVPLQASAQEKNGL
OAT3, sequence (Q8TCC7 whole entry): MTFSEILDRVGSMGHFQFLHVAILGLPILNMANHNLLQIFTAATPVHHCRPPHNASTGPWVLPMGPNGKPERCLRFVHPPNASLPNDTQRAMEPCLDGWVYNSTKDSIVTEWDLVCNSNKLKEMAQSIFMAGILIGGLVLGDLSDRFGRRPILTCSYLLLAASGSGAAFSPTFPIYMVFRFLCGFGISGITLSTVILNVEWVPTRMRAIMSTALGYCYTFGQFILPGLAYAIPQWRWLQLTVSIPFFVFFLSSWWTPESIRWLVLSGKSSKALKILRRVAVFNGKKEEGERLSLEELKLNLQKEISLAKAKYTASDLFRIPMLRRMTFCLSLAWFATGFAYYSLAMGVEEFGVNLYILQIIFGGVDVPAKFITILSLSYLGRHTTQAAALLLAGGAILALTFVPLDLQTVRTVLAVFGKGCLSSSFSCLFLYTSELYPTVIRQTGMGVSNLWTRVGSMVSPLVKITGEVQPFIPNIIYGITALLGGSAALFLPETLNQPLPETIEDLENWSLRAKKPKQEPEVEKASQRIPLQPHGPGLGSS

BOTTOM (hURAT1): 6.1
HILLSLOPE (hURAT1): 1.20
TOP (hURAT1): 99.1
Compound: CCc1oc2ccccc2c1C(=O)c1cc(Br)c(O)c(Br)c1 [Benzbromarone]

IC50 (OAT3): > 100 µM
IC50 (OAT1): 12.7 µM
Compound: CC(C)(Sc1ccnc2ccc(C(F)(F)F)cc12)C(=O)NS(C)(=O)=O [D]

renal coefficient ([1]; rats, single intragastric dose 80 mg/kg): increased significantly
Compound: O=C(O)CSc1nnc(Br)n1-c1ccc(C2CC2)c2ccccc12 [Lesinurad]
serum uric acid level ([1]; model rats, single intragastric dose 40 mg/kg, vs model control group): significantly reduce

inhibitory effect on drug transporter OAT4 (in words) (OAT4): a certain inhibitory effect
Compound: CCCN(CCC)S(=O)(=O)c1ccc(C(=O)O)cc1 [Probenecid]

BOTTOM (hURAT1; [2]): 0.00
HILLSLOPE (hURAT1; [2]): 0.75
TOP (hURAT1; [2]): 96.94
IC50 (hURAT1; hURAT1, HEK-293T, 14C-uric acid, 5 min at 37° C., superscript 1 = plate1, 2 = plate2): 0.0545 µM
Compound: CC(C)(Sc1ccncc1-c1ccc(C#N)c2ccccc12)C(=O)O [Verinuard, Verinurad]
